Results on two molecules are retold here after patent US12636293B2, “Methods of treating charcot-marie-tooth disease” (CMTx Biotech Inc., priority 2019, dated 2026).

For series [1] the following is noted: dose of about 10 to about 20 mg/day; cited from earlier work.
Series [2] deals with Charcot Marie Tooth Disease symptoms (neuropathic pain). Nature of the series: Case of a subject with Charcot Marie Tooth Disease treated with sub-antimicrobial dose doxycycline. It is filed as in vivo, human. The procedure:
The subject described the pain during the daytime hours as a 2/10 and during the evening hours as a 6/10, and experienced this pain consistently for the prior 10 years. The subject began taking a sub-antimicrobial dose of doxycycline, i.e., 20 mg twice daily (i.e. Periostat®). […] Throughout the treatment period, the subject described the pain during daytime hours as a 1/10, and during the evening hours also as a 1/10. […] Within 1 week of discontinuing twice-daily sub-antimicrobial dose doxycycline treatment, the subject experienced a return of the neuropathic pain in a sporadic manner.

Take `NC(=O)C1=C(O)C[C@@H]2C[C@@H]3Cc4cccc(O)c4C(=O)C3=C(O)[C@]2(O)C1=O` [CMT-3, 6-demethyl-6-deoxy-4-dedimethylaminotetracycline]: in series [1], the “plasma concentrations in humans” value was “about 1.0 μg/ml”.

Take `C[C@H]1c2cccc(O)c2C(=O)C2=C(O)[C@]3(O)C(=O)C(C(N)=O)=C(O)[C@@H](N(C)C)[C@@H]3[C@@H](O)[C@@H]21` [doxycycline, 6α-deoxy-5-hydroxytetracycline]: the adverse events result in series [2] (20 mg twice daily for a period of 12 weeks) was “no adverse events were observed”. Besides, the “time to return of neuropathic pain (sporadic) after discontinuing treatment” value in series [2] (after 12 weeks of 20 mg twice daily) is at most 1 week. Also, the “pain during daytime hours (subject's description)” value in series [2] (person with CMTD, 20 mg twice daily, throughout the treatment period (12 weeks), before treatment 2/10) is 1/10. In addition, the “pain during the evening hours (subject's description)” value in series [2] (person with CMTD, 20 mg twice daily, throughout the treatment period (12 weeks), before treatment 6/10) is given as 1/10.
